These results are taken from publication PMC3157426 (PLoS ONE, 2011).

“And” between values parts separate entries of the source, which are not always exact repeats. Identical values can stand only once. Like-named read-outs stand apart in the source and are kept apart here.

Assay [1] concerns the target B/Perth/211/01 influenza B wild type NA (Influenza B virus, UniProt Q3S340). The format is biochemical, influenza B virus B/Perth/211/01.
In assay [2] the target is A/Mississippi/03/01 H1N1 wild type NA (Influenza A virus, UniProt Q289M4). The format is biochemical, influenza virus A/Mississippi/03/01 H1N1.
Assay [3] has as its target A/Fukui/45/04 H3N2 wild type NA (Influenza A virus, UniProt C0IZY2). It counts as biochemical, influenza virus A/Fukui/45/04 H3N2.
The target of assay [4] is H1N1 pandemic influenza virus A/Swine/Shepparton/2009 NA (Influenza A virus, UniProt I6NQT4). Description: biochemical. It counts as biochemical, influenza virus A/Swine/Shepparton/2009 pandemic H1N1.
Assay [5] concerns the target clade 1 H5N1 virus from Vietnam N1 NA (Influenza A virus, UniProt Q6DPL2). It counts as biochemical, avian influenza H5N1 clade 1 (Vietnam).
Assay [6] has as its target clade 2 H5N1 virus from Indonesia N1 NA (Influenza A virus, UniProt Q6R2G6). It counts as biochemical, avian influenza H5N1 clade 2 (Indonesia).
A further assay deals with N2 NA. The note with it: cited from earlier work.
The mark [7] stands for this setting: read-out: IC50 at 10 min, 30' Pre.
Where [8] appears, read: read-out: IC50 at 10 min, No pre.
Setting [9] is: read-out: final IC50 after 60 min, 30' pre.
Where [10] appears, read: read-out: final IC50 after 60 min, No pre.
Setting [11] is: read-out: IC50 on relative slope, Rates time interval 30-40.
[12] abbreviates: read-out: IC50 on relative slope, Rates time interval 40-50.
Setting [13] is: read-out: IC50 on relative slope, Rates time interval 50-60.

As for `CC(=O)N[C@H]1[C@H]([C@H](O)[C@H](O)CO)OC(C(=O)O)=C[C@@H]1O` [DANA, 2-deoxy,2,3-dehydro N-acetyl neuraminic acid], the “binding phenotype (slow or fast binding)” value in assay [1], in assay [2], in assay [3], in assay [4], in assay [5] and in assay [6] was “fast binding” in each case.
Take `CCC(CC)[C@H](NC(C)=O)[C@@H]1[C@H](O)[C@@H](C(=O)O)C[C@H]1N=C(N)N` [Peramivir, peramivir]: the “10'/60 (ratio of IC50s), No pre” value in assay [1] was determined as 9.3; in assay [2], 6.5; in assay [3] it was 8.7; in assay [4], 5.1; in assay [5], 6.6; in assay [6], 7.0. Moreover, the “60'/10 (ratio of IC50s), 30' Pre” value stood at 1.5 in assay [1]; 1.4 in assay [2]; 1.3 in assay [3]; 1.5 in assay [4]; 1.3 in assay [5]; 1.4 in assay [6]. Also, the “No pre/pre (ratio of 60 min IC50s)” value in assay [1] worked out at 9.8; in assay [2] it was 8.2; in assay [3], 9.0; in assay [4], 7.1; in assay [5] it was 21.0; in assay [6] it was 9.3. Besides, the half-inhibitory concentration (IC50) – broadly, the point on the concentration scale where inhibition reaches its midpoint – in assay [1] (setting [7]) was 1.9 nM; in assay [1] (setting [8]), 259 nM; in assay [1] (setting [9]) it was 2.8 nM; in assay [1] (setting [10]) it was 27.8 nM; in assay [2] (setting [7]), 0.3 nM; in assay [2] (setting [8]), 20.2 nM. Moreover, the IC50 in assay [2] (setting [9]) was found to be 0.4 nM; in assay [2] (setting [10]) it was 3.1 nM; in assay [3] (setting [7]) it was 1 nM; in assay [3] (setting [8]) it was 103 nM; in assay [3] (setting [9]), 1.3 nM; in assay [3] (setting [10]) it was 11.9 nM. Moreover, the half-maximal inhibitory concentration (IC50) in assay [4] (setting [7]) is 0.2 nM; in assay [4] (setting [8]), 10.1 nM; in assay [4] (setting [9]), 0.3 nM; in assay [4] (setting [10]) it was 2 nM; in assay [5] (setting [7]), 0.2 nM; in assay [5] (setting [8]), 40.9 nM. Further, the IC50 in assay [5] (setting [9]) stood at 0.3 nM; in assay [5] (setting [10]) it was 6.2 nM; in assay [6] (setting [7]), 0.4 nM; in assay [6] (setting [8]), 37.7 nM; in assay [6] (setting [9]), 0.6 nM; in assay [6] (setting [10]) it was 5.4 nM.
In the case of `CC(=O)N[C@H]1[C@H]([C@H](O)[C@H](O)CO)OC(C(=O)O)=C[C@@H]1N=C(N)N` [Zanamivir, zanamivir], the IC50 is 0.5 nM in assay [4] (IC50 at 10 min, 30' Pre); 29.5 nM in assay [4] (IC50 at 10 min, No pre); 1.4 nM in assay [4] (final IC50 after 60 min, 30' pre); 5.8 nM in assay [4] (final IC50 after 60 min, No pre). For the same molecule, in the assay on N2 NA, the “variation of the apparent Ki depending on the incubation conditions” value was 10,000 fold.
In the case of oseltamivir carboxylate, the IC50 is 0.5 nM in assay [2] (setting [7]); 12.2 nM in assay [2] (setting [8]); 6.2 nM and 3.9 nM in assay [2] (read-out: IC50 on relative slope, Rates time interval 20-30); 6.7 nM and 4.6 nM in assay [2] (setting [11]); 6.8 nM and 5 nM in assay [2] (setting [12]); 7.9 nM and 5.6 nM in assay [2] (setting [13]). In addition, the IC50 in assay [2] (setting [9]) was 3.1 nM; in assay [2] (setting [10]) it was 7.3 nM; in assay [3] (setting [7]), 0.5 nM; in assay [3] (setting [8]) it was 30.4 nM; in assay [3] (setting [11]) it was 3.8 nM and 2.5 nM; in assay [3] (setting [12]), 3.8 nM and 3.3 nM. The half-inhibitory concentration (IC50) in assay [3] (setting [13]) turned out to be 3.4 nM; in assay [3] (setting [9]), 1.7 nM; in assay [3] (setting [10]), 5.3 nM; in assay [4] (setting [7]), 0.5 nM; in assay [4] (setting [8]) it was 15.8 nM; in assay [4] (setting [9]) it was 5.1 nM. Further, the IC50 was determined as 6.8 nM in assay [4] (setting [10]); 0.9 nM in assay [6] (setting [7]); 28.3 nM in assay [6] (setting [8]); 19.6 nM in assay [6] (setting [9]); 21.4 nM in assay [6] (setting [10]). Besides, the “binding phenotype (slow or fast binding)” value in assay [3] is recorded as “slow binding phenotype”.
